Results as given in the NIST ThermoML archive (doi:10.1007/s10765-010-0860-3).
± gives the expanded uncertainty stated by the source.

Legend:
[1] = 101 kPa, Liquid; for viscosity: Capillary tube (Ostwald / Ubbelohde) method; for mass density: Pycnometric method
[2] = xn = mol fraction of the nth substance listed; settings: 101 kPa, Liquid; for viscosity: Capillary tube (Ostwald / Ubbelohde) method; for mass density: Pycnometric method

Compound: CC1COC(=O)O1 (configuration not stated) [4-methyl-1,3-dioxolan-2-one]
- viscosity ([1]; 288.15 K): 3.086 ± 0.025 mPa·s
- mass density ([1]; 288.15 K): 1208.67 ± 0.99 kg/m3
- viscosity ([1]; 298.15 K): 2.5 ± 0.021 mPa·s
- mass density ([1]; 298.15 K): 1197.58 ± 0.96 kg/m3
- viscosity ([1]; 308.15 K): 2.073 ± 0.017 mPa·s
- mass density ([1]; 308.15 K): 1187.16 ± 0.95 kg/m3

Compound: C1CCOC1 [tetrahydrofuran]
- viscosity ([1]; 288.15 K): 0.508 ± 0.005 mPa·s
- mass density ([1]; 288.15 K): 892.93 ± 0.86 kg/m3
- viscosity ([1]; 298.15 K): 0.462 ± 0.004 mPa·s
- mass density ([1]; 298.15 K): 881.96 ± 0.86 kg/m3
- viscosity ([1]; 308.15 K): 0.426 ± 0.004 mPa·s
- mass density ([1]; 308.15 K): 870.85 ± 0.87 kg/m3

Compound: CC1COC(=O)O1 (configuration not stated) [4-methyl-1,3-dioxolan-2-one] + CC(=O)CC(C)=O
- viscosity ([2]; 288.15 K, x1 = 1): 3.086 ± 0.025 mPa·s
- mass density ([2]; 288.15 K, x1 = 1): 1208.67 ± 0.99 kg/m3
- viscosity ([2]; 298.15 K, x1 = 1): 2.5 ± 0.021 mPa·s
- mass density ([2]; 298.15 K, x1 = 1): 1197.58 ± 0.96 kg/m3
- viscosity ([2]; 308.15 K, x1 = 1): 2.073 ± 0.017 mPa·s
- mass density ([2]; 308.15 K, x1 = 1): 1187.16 ± 0.95 kg/m3

Compound: C1CCOC1 [tetrahydrofuran] + CC1COC(=O)O1
- viscosity ([2]; 288.15 K, x2 = 0): 0.508 ± 0.005 mPa·s
- mass density ([2]; 288.15 K, x2 = 0): 892.93 ± 0.86 kg/m3
- viscosity ([2]; 298.15 K, x2 = 0): 0.462 ± 0.004 mPa·s
- mass density ([2]; 298.15 K, x2 = 0): 881.96 ± 0.86 kg/m3
- viscosity ([2]; 308.15 K, x2 = 0): 0.426 ± 0.004 mPa·s
- mass density ([2]; 308.15 K, x2 = 0): 870.85 ± 0.87 kg/m3

Compound: CC(=O)CC(C)=O [2,4-pentanedione]
- viscosity ([1]; 288.15 K): 0.741 ± 0.006 mPa·s
- mass density ([1]; 288.15 K): 980.34 ± 0.72 kg/m3
- viscosity ([1]; 298.15 K): 0.67 ± 0.006 mPa·s
- mass density ([1]; 298.15 K): 972.18 ± 0.73 kg/m3
- viscosity ([1]; 308.15 K): 0.609 ± 0.005 mPa·s
- mass density ([1]; 308.15 K): 963.46 ± 0.76 kg/m3

Compound: C1COCCO1 [1,4-dioxane] + CC1COC(=O)O1
- viscosity ([2]; 288.15 K, x2 = 0): 1.44 ± 0.012 mPa·s
- mass density ([2]; 288.15 K, x2 = 0): 1039.1 ± 0.92 kg/m3
- viscosity ([2]; 298.15 K, x2 = 0): 1.185 ± 0.01 mPa·s
- mass density ([2]; 298.15 K, x2 = 0): 1027.92 ± 0.92 kg/m3
- viscosity ([2]; 308.15 K, x2 = 0): 1.029 ± 0.009 mPa·s
- mass density ([2]; 308.15 K, x2 = 0): 1016.55 ± 0.93 kg/m3

Compound: C1COCCO1 [1,4-dioxane]
- viscosity ([1]; 288.15 K): 1.44 ± 0.012 mPa·s
- mass density ([1]; 288.15 K): 1039.1 ± 0.92 kg/m3
- viscosity ([1]; 298.15 K): 1.185 ± 0.01 mPa·s
- mass density ([1]; 298.15 K): 1027.92 ± 0.92 kg/m3
- viscosity ([1]; 308.15 K): 1.029 ± 0.009 mPa·s
- mass density ([1]; 308.15 K): 1016.55 ± 0.93 kg/m3
